Reference: PubChem BioAssay AID248 (DTP/NCI, 2004)
Where “and” joins values, the source holds several entries; their conditions need not be identical. Identical values can stand only once. Toxic doses and inconclusive results are not listed. No stated cut-off is given here; in the data, active means T/C of 150% or more; inactive means T/C below 125%.

Test system: L1210 leukemia ip in BDF1 mice, survival T/C
Test: NCI In Vivo Anticancer Drug Screen. Data for tumor model L1210 Leukemia (intraperitoneal) in B6D2F1 (BDF1) mice
Conditions: endpoint: mean survival time, higher = longer survival
In short: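 Antitumor effect is assessed in tumor-bearing animals. Survival in the compound arm is compared with a vehicle-dosed control arm and expressed as their quotient.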

[1] = dose: 100.0 mg/kg/injection, schedule: Q01DX009 (ip), vehicle: saline with Tween-80
[2] = dose: 100.0 mg/kg/injection, schedule: Q04DX002 (ip), vehicle: saline with Tween-80
[3] = dose: 100.0 mg/kg/injection, schedule: Q04DX003 (ip), vehicle: saline with Tween-80
[4] = dose: 200.0 mg/kg/injection, schedule: Q01DX009 (ip), vehicle: saline with Tween-80
[5] = dose: 200.0 mg/kg/injection, schedule: Q04DX002 (ip), vehicle: saline with Tween-80
[6] = dose: 200.0 mg/kg/injection, schedule: Q04DX003 (ip), vehicle: saline with Tween-80
[7] = dose: 400.0 mg/kg/injection, schedule: Q01DX009 (ip), vehicle: saline with Tween-80
[8] = dose: 400.0 mg/kg/injection, schedule: Q04DX002 (ip), vehicle: saline with Tween-80
[9] = dose: 100.0 mg/kg/injection, schedule: Q04DX003 (ip), vehicle: Klucel (hydroxypropylcellulose) (HPC)
[10] = dose: 200.0 mg/kg/injection, schedule: Q04DX003 (ip), vehicle: Klucel (hydroxypropylcellulose) (HPC)
[11] = dose: 400.0 mg/kg/injection, schedule: Q04DX003 (ip), vehicle: Klucel (hydroxypropylcellulose) (HPC)
[12] = dose: 100.0 mg/kg/injection, schedule: Q01DX001 (ip), vehicle: carboxymethylcellulose (CMC)
[13] = dose: 200.0 mg/kg/injection, schedule: Q01DX001 (ip), vehicle: carboxymethylcellulose (CMC)
[14] = dose: 400.0 mg/kg/injection, schedule: Q01DX001 (ip), vehicle: carboxymethylcellulose (CMC)
[15] = dose: 100.0 mg/kg/injection, schedule: Q04DX003 (ip), vehicle: saline
[16] = dose: 200.0 mg/kg/injection, schedule: Q04DX003 (ip), vehicle: saline
[17] = dose: 400.0 mg/kg/injection, schedule: Q04DX003 (ip), vehicle: saline
[18] = dose: 400.0 mg/kg/injection, schedule: Q04DX003 (ip), vehicle: saline with Tween-80
[19] = dose: 75.0 mg/kg/injection, schedule: Q01DX001 (ip), vehicle: saline
[20] = dose: 100.0 mg/kg/injection, schedule: Q01DX009 (ip), vehicle: saline
[21] = dose: 200.0 mg/kg/injection, schedule: Q01DX009 (ip), vehicle: saline

Measured: T/C

CC(=O)NC(C)(NC(=O)CCl)C(=O)O (centres undefined)
inactive: dose: 100.0 mg/kg/injection, schedule: Q01DX001 (ip), vehicle: saline with Tween-80 98 % of control | [1] 94 % of control and 108 % of control | [2] 96 % of control and 101 % of control | [3] 106 % of control | dose: 200.0 mg/kg/injection, schedule: Q01DX001 (ip), vehicle: saline with Tween-80 102 % of control | [4] 89 % of control and 90 % of control | [5] 93 % of control and 104 % of control | [6] 98 % of control | dose: 400.0 mg/kg/injection, schedule: Q01DX001 (ip), vehicle: saline with Tween-80 107 % of control | [7] 97 % of control | [8] 95 % of control and 101 % of control

[O-][n+]1c2ccccc2c(Cl)c2ccc3ccccc3c21
inactive: [2] 93 % of control | [5] 90 % of control | [8] 90 % of control

CC(=O)N(c1ccccc1OS(C)(=O)=O)S(C)(=O)=O
inactive: [9] 109 % of control | [10] 100 % of control | [11] 104 % of control

COC(=O)[CH]([Hg][O]C(C)=O)C(OC)c1ccccc1 (centres undefined)
inactive: dose: 3.0 mg/kg/injection, schedule: Q04DX002 (ip), vehicle: carboxymethylcellulose (CMC) 86 % of control | dose: 6.0 mg/kg/injection, schedule: Q04DX002 (ip), vehicle: carboxymethylcellulose (CMC) 93 % of control | dose: 12.5 mg/kg/injection, schedule: Q04DX002 (ip), vehicle: carboxymethylcellulose (CMC) 94 % of control | dose: 25.0 mg/kg/injection, schedule: Q04DX002 (ip), vehicle: carboxymethylcellulose (CMC) 98 % of control

O=c1oc2ccccc2c(O)c1Cc1c(O)c2ccccc2oc1=O
inactive: dose: 12.5 mg/kg/injection, schedule: Q01DX009 (ip), vehicle: Klucel (hydroxypropylcellulose) (HPC) 99 % of control | dose: 25.0 mg/kg/injection, schedule: Q01DX009 (ip), vehicle: Klucel (hydroxypropylcellulose) (HPC) 86 % of control | dose: 50.0 mg/kg/injection, schedule: Q01DX009 (ip), vehicle: Klucel (hydroxypropylcellulose) (HPC) 86 % of control and 92 % of control

C/C(=N\NC(N)=S)C(C)(C)O
inactive: [12] 110 % of control | [13] 108 % of control | [14] 104 % of control

Cc1ccc(S(=O)(=O)NC(=O)NC(C)C(=O)O)cc1 (centres undefined)
inactive: [15] 102 % of control | [16] 97 % of control | [17] 96 % of control

CCC/C=C\COc1ccc(C(=O)OCC)cc1
inactive: dose: 100.0 mg/kg/injection, schedule: Q04DX002 (ip), vehicle: other 111 % of control | dose: 200.0 mg/kg/injection, schedule: Q04DX002 (ip), vehicle: other 108 % of control | dose: 400.0 mg/kg/injection, schedule: Q04DX002 (ip), vehicle: other 97 % of control

O=C(Cn1ccc(O)cc1=O)c1cccs1
inactive: [1] 102 % of control | [3] 101 % of control | [4] 100 % of control | [6] 100 % of control | [7] 98 % of control | [18] 100 % of control

CCOC(OCC)c1c(Cl)cccc1Cl
inactive: [1] 98 % of control | [3] 99 % of control | [4] 88 % of control | [6] 93 % of control | [7] 101 % of control | [18] 93 % of control

O=[N+]([O-])/C=C/c1cc2ccccc2[nH]1
inactive: dose: 100.0 mg/kg/injection, schedule: Q01DX009 (ip), vehicle: other 96 % of control | dose: 200.0 mg/kg/injection, schedule: Q01DX009 (ip), vehicle: other 113 % of control | dose: 400.0 mg/kg/injection, schedule: Q01DX009 (ip), vehicle: other 107 % of control

CC(=O)N=c1sccn1Cc1ccccc1
inactive: dose: 75.0 mg/kg/injection, schedule: Q01DX001 (ip), vehicle: carboxymethylcellulose (CMC) 95 % of control | dose: 150.0 mg/kg/injection, schedule: Q01DX001 (ip), vehicle: carboxymethylcellulose (CMC) 98 % of control | dose: 300.0 mg/kg/injection, schedule: Q01DX001 (ip), vehicle: carboxymethylcellulose (CMC) 98 % of control

CCCCCCCCCCCCC/C=C\CC(CC(=O)O)C(=O)Nc1cccc2cnccc12 (centres undefined)
inactive: [9] 97 % of control | [10] 103 % of control | [11] 97 % of control

CN(CCc1cnc2nc(N)nc(N)c2n1)c1ccc(C(=O)O)cc1
inactive: [19] 115 % of control

CC(C)(SCc1ccccc1)C(N)C(=O)O (centres undefined)
inactive: [19] 104 % of control | [20] 91 % of control | [15] 105 % of control | dose: 150.0 mg/kg/injection, schedule: Q01DX001 (ip), vehicle: saline 98 % of control | [21] 98 % of control | [16] 102 % of control | dose: 400.0 mg/kg/injection, schedule: Q01DX009 (ip), vehicle: saline 91 % of control | [17] 97 % of control

O=c1ccc(=O)n(-c2ccc(Cl)cc2)[nH]1
inactive: dose: 50.0 mg/kg/injection, schedule: Q04DX003 (ip), vehicle: saline with Tween-80 103 % of control | [3] 104 % of control | [6] 98 % of control

C=CC(C)(C)c1c2c(c(O)c3c(=O)c4ccc(O)c(O)c4oc13)C=CC(C)(C)O2
inactive: [12] 95 % of control | [13] 92 % of control | [14] 95 % of control

NC(=O)c1[nH]cnc1[N+]1=NN(c2ccccc2)CC1
inactive: dose: 50.0 mg/kg/injection, schedule: Q01DX009 (ip), vehicle: saline 102 % of control | [20] 94 % of control | [21] 102 % of control

COC(=O)COc1cc(Cl)c(Cl)cc1Cl
inactive: [2] 95 % of control | [5] 95 % of control

C=CCOCC(O)COP(=O)(O)O (centres undefined)
inactive: dose: 50.0 mg/kg/injection, schedule: Q01DX001 (ip), vehicle: saline 113 % of control | dose: 100.0 mg/kg/injection, schedule: Q01DX001 (ip), vehicle: saline 103 % of control | dose: 200.0 mg/kg/injection, schedule: Q01DX001 (ip), vehicle: saline 107 % of control | dose: 400.0 mg/kg/injection, schedule: Q01DX001 (ip), vehicle: saline 109 % of control

CN(C)/N=N\c1nc[nH]c1C(=O)NC1CCCCC1
inactive: dose: 10.0 mg/kg/injection, schedule: Q01DX001 (ip), vehicle: saline with Tween-80 100 % of control | dose: 20.0 mg/kg/injection, schedule: Q01DX001 (ip), vehicle: saline with Tween-80 94 % of control | dose: 40.0 mg/kg/injection, schedule: Q01DX001 (ip), vehicle: saline with Tween-80 96 % of control | dose: 75.0 mg/kg/injection, schedule: Q01DX009 (ip), vehicle: saline with Tween-80 98 % of control | dose: 150.0 mg/kg/injection, schedule: Q01DX009 (ip), vehicle: saline with Tween-80 109 % of control | dose: 300.0 mg/kg/injection, schedule: Q01DX009 (ip), vehicle: saline with Tween-80 101 % of control
